Laboratory results: patent US4945097A, “Aryl-cycloalkyl-alkanolamines for treatment of neurotoxic injury” (priority 1987, dated 1990)

How the values were obtained:
[1] = system: NMA neurotoxicity in 15-day old chick embryo retina; assay: NMDA/KA Antagonist Assay: prevention of NMA neurotoxicity in chick embryo retina; assay type: cell-based; settings: Gallus gallus, 0.5 h; NMA 200 μM, retina incubated 30 min at 37° C in BSS, complete protection in all specimens (n>6); read-out: antagonist potency vs NMA: concentration required to totally prevent a neurotoxic reaction
Procedure: Two agonists were employed in the present test, each at a concentration established previously to be the lowest concentration required to consistently cause a fully-developed retinal lesion: KA (25 μM) and NMA (200 μM). […] Internal controls in each experiment consisted of at least six specimens being incubated with agonist alone. […] The method of tissue preparation was as follows: 15-day old chick embryos were decapitated and their eyes removed and cut into quadrants after excising the cornea and removing the lens, vitreous and iris. The retinal quadrants were then gently separated from the pigment epithelium and incubated for 30 min. at 37° C. in BSS to which an agonist or agonist plus antagonist was added. The BSS contained 140 mM Na^+, 5.0 mM K^+, 0.5 mM Ca^++, 4 5 mM mG^++, 150 mM Cl^-, 5.6 mM glucose and bicarbonate/phosphate buffer (pH 7.3). After incubation for 30 min., the retinal quadrants were fixed by immersion in phosphate-buffered solution containing 1.5% glutaraldehyde and 1% paraformaldehyde, then additionally fixed in 1% osmium tetroxide, dehydrated in graded ethanols, cleared in toluene and embedded in araldite. Sections were cut 1 micron thick on a Sorval ultratome and stained with Methylene blue/Azure 11 for histopathological evaluation by light microscopy.

[2] = system: KA neurotoxicity in 15-day old chick embryo retina; assay: NMDA/KA Antagonist Assay: prevention of KA neurotoxicity in chick embryo retina; assay type: cell-based; design: key: --: A dash signifies no antagonist action; settings: KA 25 μM, retina incubated 30 min at 37° C in BSS
Procedure: A 15-day old chick embryo retina, incubated for 30 min. in a balanced sat solution (BSS) containing 1 mM Glu, developed a full lesion resembling that described in the immature mouse retina following s.c. administration of Glu. Other excitotoxin agonists also produce acute lesions within 30 min., each agent being effective at a concentration proportional to its known excitatory and toxic potencies. The pattern of cellular degeneration is restricted in each case to the ganglion cell, inner plexiform and inner nuclear layers, but within these areas certain agonists induce different patterns of degeneration, the differences being most pronounced between NMA and KA. Two agonists were employed in the present test, each at a concentration established previously to be the lowest concentration required to consistently cause a fully-developed retinal lesion: KA (25 μM) and NMA (200 μM). Procyclidine, biperiden and trihexyphenidyl were tested at various concentrations for their ability to prevent KA or NMA neurotoxicity. […] Internal controls in each experiment consisted of at least six specimens being incubated with agonist alone. A typical toxic reaction had to be present in all controls and absent from all experimental specimens in order to qualify as a blocking effect. The method of tissue preparation was as follows: 15-day old chick embryos were decapitated and their eyes removed and cut into quadrants after excising the cornea and removing the lens, vitreous and iris. The retinal quadrants were then gently separated from the pigment epithelium and incubated for 30 min. at 37° C. in BSS to which an agonist or agonist plus antagonist was added. The BSS contained 140 mM Na^+, 5.0 mM K^+, 0.5 mM Ca^++, […], 150 mM Cl^-, 5.6 mM glucose and bicarbonate/phosphate buffer (pH 7.3). After incubation for 30 min., the retinal quadrants were fixed by immersion in phosphate-buffered solution containing 1.5% glutaraldehyde and 1% paraformaldehyde, then additionally fixed in 1% osmium tetroxide, dehydrated in graded ethanols, cleared in toluene and embedded in araldite. […]

[3] = system: H/I neuronal degeneration in Sprague Dawley rats, 10 days old; assay type: in vivo
Procedure: A total of 30 Sprague Dawley rats, 10 days old, were used in this assay. Ten pups (5 control and 5 experimental) were studied on each of 3 separate days, the protocol being the same each day. A unilateral carotid ligation was performed under halothane anesthesia, and the incision was closed with super glue. After recovery from anesthesia, the experimental pups were given a subcutaneous injection of procyclidine (50 mg/kg in 0.1 ml aqueous solution, pH 7.4) and controls an equal volume sc injection of normal saline. Immediately thereafter, all 10 of the pups (half control and half experimental) were placed together in a large sealed transparent chamber and a partial vacuum was gradually created (pressure reduced from 760 to 200 mm Hg over a 1 minute period). A water bath surrounding the bottom half of the chamber kept the temperature inside at 38° C. After 75 minutes the pressure was returned gradually to 760 mm Hg over a 1 minute interval and, after a 2 hour observation period, the pups were anesthetized, the neck incision opened and the ligature removed from the carotid (a piece of tubing had originally been placed between the suture and vessel wall to facilitate subsequent removal of the suture without damage to the vessel wall). While still under anesthesia, the pups were sacrificed by perfusion fixation with aldehyde fixatives. Since the ligature had been removed from the occluded carotid, perfusate was able to distribute equally to the two hemispheres. After 15 minutes of perfusion, the brains were removed and sliced in 1 mm thick transverse slabs which were post fixed in osmium tetroxide, dehydrated in graded ethanols, cleared in toluene and embedded flat in araldite [J. W. Olney, "Glutamate-Induced Neuronal Necrosis In The Infant Mouse Hypothalamus: An Electron Microscopic Study", Neuropthol. Exp. Neurol., 30, 75-90 (1971)]. Sections (1 micron thick) were cut at 40 micron intervals and stained with azure II/methylene blue to permit a systematic microscopic evaluation of all regions of interest in each brain. In a large number of control infant rats (n>100) subjected to the above hypobaric/ischemic conditions, there has been shown a 90% survival rate (10% die in the hypobaric chamber) and a 94% incidence of brain damage which is always confined unilaterally to the side of the carotid ligation [J. M. Olney, "Hypoxia-Ischemia Causes Glutamate-Like Neuropathological changes in Infant Rat Brain", Neurosci Abst., 13, 1553 (1987)]. […] The damage in control rats consists of unilateral disseminated acute neuronal degeneration in some or all of the following regions: medial habenulum, dentate hippocampal gyrus, caudate nucleus, olfactory tubercle, islands of calleja, fronto-parietal neocortex and several thalamic nuclei. Two of 15 control and 2 of 15 experimental infants died in the hypobaric chamber. […] Among the 13 surviving procyclidine-treated pups, 10 had no damage in any of the above brain regions, 3 had small attenuated lesions, limited in two pups to the medial habenulum and in one to the caudate. […] Signs such as ataxia, head and body weaving, prostration and respiratory depression, which are sometimes seen in animals treated with antiexcitotoxic drugs, were not observed.

## OC(CCN1CCCCC1)(c1ccccc1)C1CC2C=CC1C2 (stereo not drawn) [Biperiden, α-bicyclo[2.2.1]hept-5-en-2-yl-α-phenyl-1-piperidinepropanol]
[1]
  EC100: 200 µM
[2]
  antagonist potency vs KA: concentration required to totally prevent a neurotoxic reaction: --

## OC(CCN1CCCC1)(c1ccccc1)C1CCCCC1 (stereo not drawn) [Procyclidine, α-cyclohexyl-α-phenyl-1-pyrrolidinepropanol]
[2]
  antagonist potency vs KA: concentration required to totally prevent a neurotoxic reaction: --
[3]; 50 mg/kg sc
  treated animals with total protection against H/I neuronal degeneration: ~80%
[3]; 50 mg/kg sc, 13 surviving treated pups, carotid ligation plus 75 min hypobaric
  number of surviving treated pups with no damage in any of the brain regions: 10
[3]; 50 mg/kg sc, 13 surviving treated pups, two limited to medial habenulum, one to caudate
  number of surviving treated pups with small attenuated lesions: 3
[3]; 50 mg/kg sc, the remaining animals
  treated animals with markedly reduced severity of neuropathology: 20%
[3]; rat, in vivo
  side effects of the single dose: minimal side effects

## OC(CCN1CCCCC1)(c1ccccc1)C1CCCCC1 (stereo not drawn) [Trihexyphenidyl, α-cyclohexyl-α-phenyl-1-piperidinepropanol]
[1]
  EC100: 125 µM
[2]
  antagonist potency vs KA: concentration required to totally prevent a neurotoxic reaction: --
